Patent US11286248B2, “Pyrazine-2(1H)-ketone compound acting as FGFR inhibitor” (ZHANGZHOU PIEN TZE HUANG PHARMACEUTICAL CO., LTD., priority 2018, dated 2022)
Structures can show the parent of a compound that is named as a salt.

Assays:
Format in all cases: biochemical
human FGFR1 = target: T1, human FGFR1 (Homo sapiens, UniProt P11362); assay: 33P isotope-labeled kinase activity test (Reaction Biology Corp), wild-type FGFR1; conditions: 33P-ATP 5 μM, substrate pEY + Mn, 120 minutes at room temperature
T1 construct: purchased Invitrogen PV3146
Method: The IC50 value is determined using ^33P isotope-labeled kinase activity test (Reaction Biology Corp) to evaluate the inhibitory ability of the compounds to be tested on human FGFR1 and FGFR4.
Buffer conditions: 20 mM 4-(2-hydroxyethyl)-1-piperazineethanesulfonic acid (Hepes) (pH 7.5), 10 mM MgCl2, 1 mM ethylene glycol-bis-(2-aminoethyl ether)tetraacetic acid (EGTA), 0.02% polyoxyethylene lauryl ether (Brij35), 0.02 mg/ml bovine serum albumin (BSA), 0.1 mM sodium vanadate (Na3VO4), 2 mM dithiothreitol (DTT), and 1% DMSO.
Test steps: At room temperature, the compounds to be tested are dissolved in DMSO to prepare a 10 mM solution for use. The substrate is dissolved in the newly prepared buffer, and the kinase to be tested is added and mixed well. The DMSO solution in which the compounds to be tested are dissolved is added to the above-mentioned homogeneous reaction solution using acoustic technology (Echo 550). […] After incubating for 15 minutes, ^33P-ATP (activity: 0.01 μCi/μl, with corresponding concentration being listed in table 1) is added to start the reaction. The supplier article number, batch number, and the concentration information in the reaction solution of FGFR1, FGFR4 and substrates thereof are listed in table 1. […] The kinase activity data is expressed by comparing the kinase activity of the groups containing the compounds to be tested with that of the blank group (containing only DMSO). The IC50 value is obtained by curve fitting using Prism4 software (GraphPad), and the experimental results are shown in table 2.

FGFR3 = target: T2, FGFR3 (Homo sapiens, UniProt P22607); assay: 33P isotope-labeled kinase activity test (Reaction Biology Corp), wild-type FGFR3; conditions: for Selectivity FGFR1/3: ratio of IC50 FGFR1 to IC50 FGFR3; for IC50: wild-type kinase, 33P-ATP 30 μM, substrate pEY + Mn, 120 minutes at room temperature
T2 construct: purchased Invitrogen PV3145

FGFR2 = target: T3, FGFR2 (Homo sapiens, UniProt P21802); assay: 33P isotope-labeled kinase activity test (Reaction Biology Corp), wild-type FGFR2; conditions: for Selectivity FGFR1/2: ratio of IC50 FGFR1 to IC50 FGFR2; for IC50: wild-type kinase, 33P-ATP 5 μM, substrate pEY + Mn, 120 minutes at room temperature
T3 construct: purchased Invitrogen PV3368
T3 sequence (P21802 22-821): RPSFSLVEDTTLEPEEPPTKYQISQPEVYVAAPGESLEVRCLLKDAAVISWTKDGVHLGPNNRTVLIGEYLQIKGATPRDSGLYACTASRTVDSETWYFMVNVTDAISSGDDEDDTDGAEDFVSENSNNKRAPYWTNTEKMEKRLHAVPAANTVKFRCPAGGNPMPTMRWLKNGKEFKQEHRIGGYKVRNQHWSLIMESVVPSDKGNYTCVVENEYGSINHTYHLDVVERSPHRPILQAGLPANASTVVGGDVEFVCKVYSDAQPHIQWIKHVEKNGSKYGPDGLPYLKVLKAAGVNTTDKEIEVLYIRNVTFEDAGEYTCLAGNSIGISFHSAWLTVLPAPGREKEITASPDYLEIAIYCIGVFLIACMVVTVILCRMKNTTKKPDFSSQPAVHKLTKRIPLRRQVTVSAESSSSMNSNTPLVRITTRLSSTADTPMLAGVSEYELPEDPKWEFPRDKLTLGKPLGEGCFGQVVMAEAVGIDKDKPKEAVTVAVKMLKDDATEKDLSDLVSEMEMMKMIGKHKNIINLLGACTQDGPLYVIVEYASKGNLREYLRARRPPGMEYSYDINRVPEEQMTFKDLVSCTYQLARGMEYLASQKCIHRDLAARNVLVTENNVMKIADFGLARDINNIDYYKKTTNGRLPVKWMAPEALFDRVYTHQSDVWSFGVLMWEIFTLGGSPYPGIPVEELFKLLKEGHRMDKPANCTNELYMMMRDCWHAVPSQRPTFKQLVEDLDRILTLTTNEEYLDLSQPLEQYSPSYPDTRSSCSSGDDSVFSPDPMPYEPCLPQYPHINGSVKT

T1 sequence (P11362 22-822): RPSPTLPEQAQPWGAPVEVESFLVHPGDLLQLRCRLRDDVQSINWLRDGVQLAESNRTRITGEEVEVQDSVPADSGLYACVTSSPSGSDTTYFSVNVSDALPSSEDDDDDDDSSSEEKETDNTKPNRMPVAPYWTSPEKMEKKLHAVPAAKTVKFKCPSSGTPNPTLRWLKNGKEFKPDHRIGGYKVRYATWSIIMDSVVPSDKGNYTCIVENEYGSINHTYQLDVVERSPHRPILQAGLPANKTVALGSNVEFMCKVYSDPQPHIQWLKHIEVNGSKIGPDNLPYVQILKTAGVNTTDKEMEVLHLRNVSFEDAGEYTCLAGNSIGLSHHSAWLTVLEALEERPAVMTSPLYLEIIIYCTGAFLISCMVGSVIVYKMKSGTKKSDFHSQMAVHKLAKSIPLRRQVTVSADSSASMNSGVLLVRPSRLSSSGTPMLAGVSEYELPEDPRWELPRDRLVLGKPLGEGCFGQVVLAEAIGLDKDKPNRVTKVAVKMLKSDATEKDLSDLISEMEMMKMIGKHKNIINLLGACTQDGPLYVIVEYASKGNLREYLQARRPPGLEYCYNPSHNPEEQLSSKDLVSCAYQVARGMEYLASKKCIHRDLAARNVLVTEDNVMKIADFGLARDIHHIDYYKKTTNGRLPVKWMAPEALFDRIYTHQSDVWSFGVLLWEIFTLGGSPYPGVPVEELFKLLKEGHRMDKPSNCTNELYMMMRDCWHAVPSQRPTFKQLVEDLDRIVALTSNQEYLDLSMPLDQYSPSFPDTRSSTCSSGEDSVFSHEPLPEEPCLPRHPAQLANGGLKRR
T2 sequence (P22607 23-806): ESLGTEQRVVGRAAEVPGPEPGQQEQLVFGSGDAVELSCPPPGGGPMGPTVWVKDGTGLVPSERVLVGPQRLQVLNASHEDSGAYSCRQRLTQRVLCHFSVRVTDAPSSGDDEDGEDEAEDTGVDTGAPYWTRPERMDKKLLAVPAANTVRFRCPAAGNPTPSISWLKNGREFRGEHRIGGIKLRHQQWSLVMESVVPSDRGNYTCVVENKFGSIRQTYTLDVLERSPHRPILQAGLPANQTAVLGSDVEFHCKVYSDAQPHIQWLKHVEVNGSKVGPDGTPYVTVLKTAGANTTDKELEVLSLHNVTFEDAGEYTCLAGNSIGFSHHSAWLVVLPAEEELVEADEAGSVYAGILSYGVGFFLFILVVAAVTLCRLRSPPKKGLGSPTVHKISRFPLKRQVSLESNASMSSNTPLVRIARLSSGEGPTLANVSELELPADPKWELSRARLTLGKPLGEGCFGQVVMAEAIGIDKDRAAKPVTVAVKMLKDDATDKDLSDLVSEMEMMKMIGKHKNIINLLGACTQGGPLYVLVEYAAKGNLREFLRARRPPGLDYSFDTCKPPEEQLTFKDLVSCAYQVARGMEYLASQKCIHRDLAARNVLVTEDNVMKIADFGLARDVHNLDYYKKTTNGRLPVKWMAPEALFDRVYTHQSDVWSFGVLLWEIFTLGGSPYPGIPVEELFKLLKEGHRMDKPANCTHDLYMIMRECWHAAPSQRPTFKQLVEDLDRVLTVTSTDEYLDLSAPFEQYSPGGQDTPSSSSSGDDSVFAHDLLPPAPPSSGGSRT

| SMILES | IC50 (human FGFR1) | Selectivity FGFR1/3 (FGFR3) | IC50 (FGFR3) | Selectivity FGFR1/2 (FGFR2) | IC50 (FGFR2) |
| --- | --- | --- | --- | --- | --- |
| COc1cc(OC)cc(-c2nc(-c3nc(-c4cn(C)nc4C)cnc3N)cn(C)c2=O)c1 [Hydrochloride salt of 0023] | 164 nM | 5.52 | 29.8 nM | 5.11 | 32.1 nM |
| COc1cc(OC)cc(-c2nc(-c3nc(-c4cnc5c(c4)CC(=O)N5C)cnc3N)cn(C)c2=O)c1 [Hydrochloride salt of 0033] | 2280 nM | 19.15 | 119 nM | 7.27 | 314 nM |
| COc1cc(OC)cc(-c2nc(-c3nc(-c4cccnc4)cnc3N)cn(C)c2=O)c1 [Trifluoroacetate salt of 0018] | 727 nM | 89.67 | 8.11 nM | 48.27 | 15.1 nM |
| COc1cc(OC)c(F)c(-c2nc(-c3nc(-c4cn(C)nc4C)cnc3N)cn(C)c2=O)c1 [Trifluoroacetate salt of 0029] | 2.33 nM | 1.52 | 1.54 nM | 4.14 | 0.56 nM |
| COc1cc(OC)cc(-c2nc(-c3nc(-c4cnn(C5CCN(C)CC5)c4C)cnc3N)cn(C)c2=O)c1 [Trifluoroacetate salt of 0031] | 183 nM | 6.57 | 27.8 nM | 4.15 | 44 nM |
| COc1cc(OC)c(Cl)c(-c2nc(-c3nc(-c4ccc(C5CCN(C)CC5)nc4)cnc3N)cn(C)c2=O)c1 [Trifluoroacetate salt of 0060] | 3.08 nM | 3.26 | 0.944 nM | 5.78 | 0.533 nM |
| COc1cc(OC)cc(-c2nc(-c3nc(-c4cnn(C)c4)cnc3N)cn(C)c2=O)c1 [compound 0017] | 78.7 nM | 12.48 | 6.31 nM | 8.95 | 8.79 nM |

Results, then the molecule that gave them:

| IC50 (human FGFR1) | Selectivity FGFR1/3 (FGFR3) | IC50 (FGFR3) | Selectivity FGFR1/2 (FGFR2) | IC50 (FGFR2) | SMILES |
| --- | --- | --- | --- | --- | --- |
| 61.6 nM | 8.40 | 7.33 nM | 5.47 | 11.2 nM | COc1cc(OC)cc(-c2nc(-c3nc(-c4cn(CC(O)CC(F)(F)F)nc4C)cnc3N)cn(C)c2=O)c1 (single isomer, unassigned) [compound 0062] |
| 70.8 nM | 5.78 | 12.3 nM | 4.39 | 16.1 nM | COc1cc(OC)cc(-c2nc(-c3nc(-c4cn(CC(O)CC(F)(F)F)nc4C)cnc3N)cn(C)c2=O)c1 (single isomer, unassigned) [compound 0063] |
| 181 nM | 11.18 | 16.2 nM | 7.97 | 22.7 nM | COc1cc(OC)cc(-c2nc(-c3nc(-c4cnn(CC(O)CC(F)(F)F)c4C)cnc3N)cn(C)c2=O)c1 (single isomer, unassigned) [compound 0064] |
| 407 nM | 9.01 | 45.2 nM | 7.56 | 53.9 nM | COc1cc(OC)cc(-c2nc(-c3nc(-c4cnn(CC(O)CC(F)(F)F)c4C)cnc3N)cn(C)c2=O)c1 (single isomer, unassigned) [compound 0065] |
| 54 nM | 5.12 | 10.5 nM | 7.05 | 7.66 nM | COc1cc(OC)cc(-c2nc(-c3nc(-c4cn(C5CCNCC5)nc4C)cnc3N)cn(C)c2=O)c1 [compound 0028] |
| 29.3 nM | 5.81 | 5.04 nM | 5.02 | 5.83 nM | COCCN1CCC(n2cc(-c3cnc(N)c(-c4cn(C)c(=O)c(-c5cc(OC)cc(OC)c5)n4)n3)c(C)n2)CC1 [compound 0035] |
| > 10000 nM | >978.5 | 10.2 nM | >68.4 | 146 nM | CCNC(=O)c1ccc(-c2cnc(N)c(-c3cn(C)c(=O)c(-c4cc(OC)cc(OC)c4)n3)n2)cn1 [compound 0038] |
